Data on one substance can be found in US20220370396A1, “METHODS FOR MODULATING CONDITIONS OF THE EYE USING NOVEL LATANOPROST COMPOUND OPHTHALMIC COMPOSITIONS” (Somerset Therapeutics LLC, priority 2021, published 2022).

The nature of the data set: Comparative stability testing of latanoprost formulations under refrigerated, room temperature and accelerated conditions. Type of data set: physicochemical. The method, then: Formulations prepared according to the invention as described in Example 1 were tested for stability under refrigerated conditions ((2-8° C.), […] (25° C./60% relative humidity) and accelerated conditions (40° C./75% relative humidity) to determine stability of such formulations. The stability data of the composition provided in Table 1 of Example 1 was also compared with Reference Product (XALATAN®). Stability results are provided in Table 3.
The stability data for the composition of Table 1, Example 1 (comprising the PCCC polyoxyl 40 hydrogenated castor oil), was compared to the composition of Table 2, Example 2, comprising the polysorbate-80.

Take polysorbate-80: the “Effect of surfactant on stabilization of latanoprost formulations” value is recorded as “marginal effect on stabilization”.
